These results are taken from patent publication US5506261A, “Substituted aryl- and heteroarylalkenyl-N-hydroxyurea inhibitors of leukotriene biosynthesis” (Abbott Laboratories, priority 1994, dated 1996).

The subject of this experiment is calcium ionophore-induced LTB4 biosynthesis. In words: Inhibition of calcium ionophore (A23187)-induced LTB4 biosynthesis in human whole blood. The format is cell-based. As to conditions: human heparinized whole blood; 15 min preincubation at 37° C.; A23187 8.3 μM, 30 minutes; LTB4 by radioimmunoassay; read-out: IC50, inhibition of leukotriene biosynthesis in human whole blood. The procedure: Inhibition of leukotriene biosynthesis was evaluated in an assay, involving calcium ionophore-induced LTB4 biosynthesis expressed human whole blood. Human heparinized whole blood was preincubated with test compounds or vehicle for 15 rain at 37° C. followed by calcium ionophore A23187 challenge (final concentration of 8.3 μM) and the reaction terminated after 30 minutes by adding two volumes of methanol containing prostaglandin B2 as an internal recovery standard. The methanol extract was analyzed for LTB4 using a commercially available radioimmunoassay.

On to `C[C@H](/C=C\c1ccc(Cc2ccc(F)cc2)s1)N(O)C(N)=O` [Example 1, Z-(R)-N-[3-(5-(4-Fluorophenylmethyl)-thien-2-yl)-1-methyl-2-propenyl]-N-hydroxyurea], for which the half-inhibitory concentration (IC50) came to 40 nM.
The same measure for `C[C@H](/C=C/c1ccc(Cc2ccc(F)cc2)s1)N(O)C(N)=O` [Example 2, E-(R)-N-[3-(5-(4-Fluorophenylmethyl)-thien-2-yl)-1-methyl-2-propenyl]-N-hydroxyurea]: 180 nM.

Usually IC50 stands for the concentration that gives 50% inhibition.
